Results taken from US12378247B2, “Mesylate salt of para-topolin, compositions containing said salt and use thereof” (USTAV EXPERIMENTALNI BOTANIKY AV CR, V. V. I., priority 2020, dated 2025).

Columns and labels:
[1] = ORAC (Oxygen Radical Absorbance Capacity), ability to scavenge free radicals; assay type: biochemical; settings: n = 3
Experimental: The ability of the substance to scavenge free radicals in vitro was determined using the ORAC (Oxygen Radical Absorbance Capacity) method. Briefly, 100 μl of fluorescein ([…]) and 25 μl of tested substance solution were pipetted into each well of a 96-well microtiter plate preheated to 37° C. The reaction itself was started by the addition of 25 μL 250 mM AAPH. After shaking for 5 s, the fluorescence (Ex. 485 nm, Em. 510 nm) was read every 3 min for 90 min using an Infinite 200 instrument (TECAN, Switzerland). The area under the curve was used to express the antioxidant capacity relative to trolox, which is used as a standard. […] Such activities are likely to be closely related to the electron-rich C6-hydroxybenzylamino substituent system.

[2] = tested on: Human diploid fibroblast BJ; experiment: MTT cytotoxicity assay in normal fibroblasts; assay type: cell-based; settings: 72 hours
Experimental: MTT (metabolic tetrazolium toxicity) assay is a standard colorimetric assay for evaluation of cytotoxicity. Mitochondrial dehydrogenase activity converts yellow MTT into violet formazan which is measured by means of spectrometry. Human diploid fibroblast BJ (passage 18-22) were seeded into 96-well plate (5.000 cells per well). After 6 hours cultivation medium (DMEM with 5 g/l glucose, 2 mM glutamine, 100 U/ml penicillin, […] streptomycin, 10% fetal calf serum and sodium bicarbonate) was replaced with the cultivation medium containing test compounds in concentration range of 0-200 μM. Highest concentration was adjusted if the solubility of the compound was limiting. Every concentration was tested in pentaplicate. MTT was added to the cells after 72 hours incubation (final concentration 0.5 mg/ml) and incubation continued for another 3 hours. MTT was solubilised by DMSO and absorbance at 570 nm was measured. Growth inhibition (GI) was estimated using the following equitation: GI=(mean A drug exposed wells-mean Ablank/mean Acontrol wells−mean Ablank)×100%. The GI20 value, the drug concentration causing 20% decrease in mitochondrial dehydrogenase activity, was calculated from the obtained dose response curves.

Rat glioma C6 cells = experiment: Anti-inflammatory activity: isoproterenol-induced intracellular cAMP synthesis; assay type: cell-based; settings: isoproterenol-induced cAMP, C6 cells
Experimental: The anti-inflammatory activity of para-topolin and para-topolin mesylate was determined; cytokinin kinetin was also evaluated as a control. Rat glioma C6 cells (ATCC No. CCL107) were cultured in a monolayer in chemically defined beser medium containing Ham's F10/minimal essential medium (1:1 v/v), 2 mM L-glutamine, 1% (v/v). Minimum vitamins of essential medium (100×), 1% (v/v) minimum essential amino acids (100×), 100 U/ml penicillin, […] streptomycin and 30 nM sodium selenite. Incubation was performed at 37° C. in a 100% humidified atmosphere. The assays were performed in logarithmic growth phase at a density of 2.5×10^5 cells/cm^2. Intracellular cAMP synthesis was induced by the addition of 5 mM (−)-isoproterenol; at the same time, various concentrations of tested compounds were added at the same time as (−)-isoproterenol. After 30 minutes of incubation, the cellular amount of CAMP was determined by ELISA (cAMP-enzyme immunoassay from Amersham). IC50 values were determined from the […] dose-response curve.

SMILES	ORAC Average(TE), Trolox equivalents on equimolar basis [1] [TE]	Cytotoxicity for Human Diploid Fibroblasts GI20 [2] [µM]	Anti-inflammatory activity (in words) (Rat glioma C6 cells)
Oc1ccccc1CNc1ncnc2nc[nH]c12 [6-(2-hydroxybenzylamino)purine (oT), 6-(2-hydroxybenzylamino)purine]	7.026	–	–
Oc1cccc(CNc2ncnc3nc[nH]c23)c1 [6-(3-hydroxybenzylamino)purine (mT), 6-(3-hydroxybenzylamino)purine]	4.509	–	–
OC[C@H]1O[C@@H](n2cnc3c(NCc4ccccc4)ncnc32)[C@H](O)[C@@H]1O [6-(benzylamino)purine riboside]	–	1.7	–
c1coc(CNc2ncnc3nc[nH]c23)c1 [6-furfurylaminopurine (kinetin), 6-furfurylaminopurine]	–	>167	inactive
OC[C@H]1O[C@@H](n2cnc3c(NCc4ccco4)ncnc32)[C@H](O)[C@@H]1O [6-furfurylaminopurine riboside]	–	2.1	–
